From patent US10682399B2, “Target peptides for colorectal cancer therapy and diagnostics” (University of Virginia Patent Foundation, priority 2012, dated 2020)
Non-standard residues stand in square brackets, D forms with d. No end group written: not given here. pS = N[C@@H](COP(=O)(O)O)C(=O)O

How the values were obtained:
Healthy donor PBMC = assay: Cultured IFNγ ELISpot on day 7, healthy donor PBMC; type: cell-based, human; conditions: day 7, HLA-matched healthy donors
Description: Healthy donor PBMC responses to the CRC tumor-specific phosphopeptides were assessed using a cultured IFNγ ELISpot on day 7.
Generally, quantification of T cell IFNγ production in response to peptides was performed by ELISpot as per manufacturer's instructions. In brief, ELISpotPRO wells, pre-coated with IFNγ monoclonal antibody mAb 1-D1K (MabTech, product code: 3420-2APW-2), were washed four times with sterile PBS and blocked for 30 minutes with 200 μl 10% RPMI 1640 after which the blocking medium was removed.
For ELISpot analysis, PBMCs and CD8+ T cells were isolated fresh from healthy donors and patients. 1×10^6 PBMCs were isolated from both disease patients and healthy donors and re-suspended in AIM-V media (10% human AB serum) in a 96 well plate. Peptide or phosphopeptides were added individually at 10 μg/ml and placed at 37° C. in CO2 incubator for 7 days. Cells were then harvested, washed four times, and re-challenged with either phosphopeptides, peptides, anti CD3 (OKT3, 100 ng/ml, Mabtech) as per manufacturer's instructions. Individual cytokine-producing cells were identified as dark spots after a 15 minute reaction with 5-bromo-4-chloro-3-indolyl phosphate and NBT by means of an alkaline phosphatase conjugate substrate (Mabtech).

CD8+ T cells = assay: Immunization of HLA-A2 transgenic mice with phosphopeptide; type: in vivo, mouse; conditions: immunization with the phosphopeptide
Description: In some embodiments, the immunogenicity of a target peptide is measured using transgenic mice expressing human MHC class I genes. For example, “ADD Tg mice” express an interspecies hybrid class I MHC gene, AAD, which contains the α-1 and α-2 domains of the human HLA-A2.1 gene and the α-3 transmembrane and cytoplasmic domains of the mouse H-2Dd gene, under the transcriptional control of the human HLA-A2.1 promoter. Immunodetection of the HLA-A2.1 recombinant transgene established that expression was at equivalent levels to endogenous mouse class I molecules. The mouse α-3 domain expression enhances the immune response in this system. Compared to unmodified HLA-A2.1, the chimeric HLA-A2.1/H2-Dd MHC Class I molecule mediates efficient positive selection of mouse T cells to provide a more complete T cell repertoire capable of recognizing peptides presented by HLA-A2.1 Class I molecules.
The peptide epitopes presented and recognized by mouse T cells in the context of the HLA-A2.1/H2-Dd class I molecule are the same as those presented in HLA-A2.1^+ humans. […]
In some embodiments, the immunogenicity of a modified phosphopeptide is determined by the degree of Interferon gamma (IFNγ) and/or tumor necrosis factor-alpha (TNF-α) production of T cells from ADD Tg mice immunized with the target peptide, e.g., by immunization with target peptide pulsed bone marrow derived dendritic cells. […]

xenograft tumor = assay: Xenograft tumor model system; type: in vivo
Text: (§1) IRS proteins are adapter proteins that link signaling from upstream activators to multiple downstream effectors to modulate normal growth, metabolism, survival and differentiation.

CRC cell line SW620 = assay: Killing of CRC cell line by phosphopeptide-specific T cell lines; type: cell-based, human; conditions: T cell lines established against the phosphopeptide
Text: T cells lines were established against some of these key phosphopeptide targets.

[1] = system: human melanoma and breast tumors; assay: Recognition and killing of tumors in vitro by phosphopeptide-specific CD8+ T cells; type: cell-based
Text: as §1

[2] = system: Tumor infiltrating lymphocytes (TILs); assay: TIL responses to phosphopeptides, multiplexed intracellular cytokine staining for IL-2, IFNγ, TNFα; type: cell-based, human
Description: Tumor infiltrating lymphocytes (“TILs”) from the same tumors, were extracted and expanded, and their responses to the phosphopeptides assessed using multiplexed intracellular cytokine staining for IL-2, IFNγ, and TNFα as depicted in FIG. 1A.
Tumor infiltrating lymphocytes (TILs) were also taken from the patient tumors at resection and expanded, using high-dose IL-2 (6000 IU/ml). TIL responses to the phosphopeptides were then tested using ICS. TILs were stimulated with phosphopeptide and cultured for 7 days before being re-stimulated in an intracellular cytokine staining assay assessing production of tumor necrosis factor alpha (TNFα), interferon gamma (IFNγ) and interleukin-2 (IL-2). The results are depicted in FIG. 6.

memory T cells = assay: Phosphopeptide-specific memory T cell response in a patient; type: cell-based, human
Text: The phrase “capable of inducing a target peptide-specific memory T cell response in a patient” as used herein relates to eliciting a response from memory T cells (also referred to as “antigen-experienced T cell”), which are a subset of infection- and cancer-fighting T cells that have previously encountered and responded to their cognate antigen. Such T cells can recognize foreign invaders, such as bacteria or viruses, as well as cancer cells. Memory T cells have become “experienced” by having encountered antigen during a prior infection, having encountered cancer, or via previous vaccination. At a second encounter with the cognate antigen (e.g., by way of an initial inoculation with a target peptide of the presently disclosed subject matter), memory T cells can reproduce to mount a faster and stronger immune response than the first time the immune system responded to the invader (e.g., through the body's own consciously unperceived recognition of a target peptide being associated with diseased tissue). This behavior can be assayed in T lymphocyte proliferation assays, which can reveal exposure to specific antigens.
Tensin 3 (TNS3) plays a role in actin remodeling. It is involved in the dissociation of the integrin-tensin-actin complex. EGF activates TNS4 and down-regulates TNS3 which results in capping the tail of ITGB1. […]

RTHsLLLLL (RTH[pS]LLLLL; listed as Homo sapiens) [RNASE4]
Healthy donor PBMC responses, IFNγ ELISpot (Healthy donor PBMC): many responses were seen

RVAsPTSGV (RVA[pS]PTSGV; listed as Homo sapiens) [IRS2 (A2), HLA-A*0201 phosphopeptide from insulin receptor substrate 2]
Generation of phosphopeptide-specific CD8+ T cells (CD8+ T cells): can be generated | Tumor growth control by the T cells (xenograft tumor): controlled tumor growth | Killing of SW620 by phosphopeptide-specific T cell line (CRC cell line SW620): specifically kill | Recognition and killing of human melanoma and breast tumors by the T cells [1]: capable of recognizing and killing

RTMsEAALVRK (RTM[pS]EAALVRK; listed as Homo sapiens) [RASSF6]
TIL responses to phosphopeptide (IL-2, IFNγ, TNFα) ([2]; TILs extracted from tumors and expanded): responses were seen

VMIGsPKKV (VMIG[pS]PKKV; listed as Homo sapiens) [Tensin 3 phosphopeptide]
Phosphopeptide-specific memory T cell response (memory T cells): capable of inducing a strong phosphopeptide-specific memory T cell response

LPIFSRLsI (LPIFSRL[pS]I; listed as Homo sapiens) [ZFP36L2]
Healthy donor PBMC responses, IFNγ ELISpot (Healthy donor PBMC): many responses were seen | Killing of SW620 by phosphopeptide-specific T cell line (CRC cell line SW620): specifically kill

RPRARsVDAL (RPRAR[pS]VDAL; listed as Homo sapiens) [LISCH7]
TIL response ([2]; TILs from the tumor from which the phosphopeptides were identified, equivalent to the EBV peptide response): ~2 % of TILs
